Reference: patent US5493024A, “3,4,N-trisubstituted-4,5-dihydro-1H-pyrazole-1-carboxamides and their use as insectioides” (DowElanco, priority 1993, dated 1996)
Converted amounts (≈) assume the structure as drawn.

Columns and labels:
beet armyworm [1] = assay: Effect on beet armyworm, contact and ingestion test (treated cotton leaf discs); format: in vivo, S. exigua (beet armyworm); conditions: Spodoptera exigua, foliar, 120 h; second-instar larvae, sprayed cotton leaf discs, 5 days at 25° C; read-out: BEET ARMYWORM Contact and Ingestion Test LC50, ppm
Experimental: (§1) Effect on Tobacco Budworm and Beet Armyworm by Leaf Ingestion and/or Contact.
(§2) Stock solutions of the compounds to be tested having a known concentration were prepared by dissolving weighed amounts in a 90:10 mixture of high-purity acetone and ethanol and these solutions were diluted with distilled water (containing 0.05 percent by weight Tween 20™ surfactant) to obtain the spray solutions of known concentration employed. Greenhouse-grown cotton leaves of uniform age were cut into 2.5 cm diameter discs and one disc was placed in the bottom of each of a number of 30 mL plastic cups. The cups were then sprayed by means of a track sprayer applying 0.055 mL of spray solution per cup. The leaf discs were allowed to dry and then a single second-instar H. virescens (tobacco budworm) or S. exigua (beet armyworm) larva was added to each cup and each cup was capped with a perforated plastic lid. Ten cups were prepared for each insect species and each application rate and five applications rates were usually run. Treated cups were stored for 5 days at 25° C. and were then graded for mortality. Untreated controls and positive controls (cypermethrin) were run simultaneously. The amount of test chemical required to kill half of the larvae (LD50) was calculated.

[2] = system: Blattella germanica nymphs; assay: Effect on cockroaches, contact test (treated vials); format: in vivo; conditions: 168 h, 50 ppm solution, after 7 days, 27° C, read-out: percent control, contact test
Experimental: (§3) Two hundred ppm stock solutions of the compounds to be tested were prepared by dissolving 2.4 milligrams (mg) of each test compound in 12 mL of acetone; four lower concentration solutions were prepared by serial dilution using 3 mL of solution. A 0.5 mL portion of each test solution was pipetted onto 0.2 g of yellow corn meal placed in a small test tube cap (Fisher 02-706-33) and the mixture was placed in a fume hood overnight to allow the solvent to evaporate. […] Each cap was then placed in a 9 cm (centimeter) diameter Petri plate along with a 2 dram vial containing a cotton wick and water. A 0.5 mL portion of each test solution was also pipetted into a 20 mL borosilicate glass scintillation vial. The vials were placed on a roller mixer and the acetone was allowed to evaporate while the vials rolled. […] Five late third or early fourth instar Blattella germanica nymphs weighing 0.01-0.04 g were placed in each vial and each Petri plate and covers were applied loosely to allow entry of air. Each Petri plate and vial was held at 27° C., the Petri plates for 21 days and the vials for 7 days. The percent of mortality was read periodically and at the end of the test.

tobacco budworm [3] = assay: Effect on tobacco budworm, contact test (treated Teflon discs); format: in vivo, H. virescens (tobacco budworm); conditions: Heliothis virescens, 144 h; second-instar larvae, sprayed Teflon discs 24 hours, then 5 more days on untreated leaf, 25° C; read-out: TOBACCO BUDWORM Contact Test LC50, ppm
Experimental: (§4) Effect on Tobacco Budworm and Beet Armyworm by Contact.
(§5) Stock solutions of the compounds to be tested having a known concentration were prepared by dissolving weighed amounts in a 90:10 mixture of high-purity acetone and ethanol and these solutions were diluted with distilled water (containing 0.05 percent by weight Tween 20™ surfactant) to obtain the spray solutions of known concentration employed. Teflon™ discs 5 cm in diameter were placed in plastic petri dishes of slightly larger diameter and these dishes were sprayed by means of a track sprayer applying 0.104 mL of spray solution per cup. The Teflon™ discs were allowed to dry, a single second-instar H. virescens (tobacco budworm) or S. exigua (beet armyworm) larva was placed on each Teflon™ disc, and each disc was capped with a plastic lid. Ten Teflon™ discs were prepared for each application rate and five application rates were usually run. Treated discs were stored for 24 hours at 25° C. and then the Teflon™ disc was removed and replaced with an untreated cotton leaf disc. After 5 more days of storage at 25 ° C. the dishes were graded for mortality. Untreated controls and positive controls (cypermethrin) were run simultaneously. The amount of test chemical required to kill half of the larvae (LD50) was calculated.

[4] = system: Blattella germanica nymphs; assay: Effect on cockroaches, ingestion test (treated corn meal); format: in vivo; conditions: 504 h, after 21 days, 27° C, read-out: percent control, ingestion test; for mortality at 12.5 ppm: 12.5 ppm solution; for mortality at 50 ppm: 50 ppm solution; for mortality at 200 ppm: 200 ppm solution
Experimental: as §3

tobacco budworm [5] = assay: Effect on tobacco budworm, contact and ingestion test (treated cotton leaf discs); format: in vivo, H. virescens (tobacco budworm); conditions: Heliothis virescens, foliar, 120 h; second-instar larvae, sprayed cotton leaf discs, 5 days at 25° C; read-out: TOBACCO BUDWORM Contact and Ingestion Test LC50, ppm
Experimental: as §1, §2

beet armyworm [6] = assay: Effect on beet armyworm, contact test (treated Teflon discs); format: in vivo, S. exigua (beet armyworm); conditions: Spodoptera exigua, 144 h; second-instar larvae, sprayed Teflon discs 24 hours, then 5 more days on untreated leaf, 25° C; read-out: BEET ARMYWORM Contact Test LC50, ppm
Experimental: as §4, §5

O=C(Nc1ccc(C(F)(F)F)cc1)N1CC(c2ccc(C(F)(F)F)cn2)C(c2ccc(F)cc2)=N1 (stereo not shown) [G, 4,5-Dihydro-3-(4-fluorophenyl)-N-(4-trifluoromethylphenyl)-4-(5-trifluoromethyl-2-pyridinyl)-1H-pyrazole-1-carboxamide]
LC50 (beet armyworm [1]): 1 µg/mL (≈ 2.01 µM)
mortality at 50 ppm [2]: 100%
LC50 (tobacco budworm [3]): 8.7 µg/mL (≈ 17.5 µM)
mortality at 12.5 ppm [4]: ~100%
mortality at 50 ppm [4]: ~100%
mortality at 200 ppm [4]: 100%
LC50 (tobacco budworm [5]): 1.1 µg/mL (≈ 2.22 µM)
LC50 (beet armyworm [6]): 5 µg/mL (≈ 10.1 µM)

O=C(Nc1ccc(OC(F)(F)F)cc1)N1CC(c2ncc(Cl)cn2)C(c2ccc(F)cc2)=N1 (stereo not shown) [T, 4-(5-Chloro-2-pyrimidinyl)-4,5-dihydro-3-(4-fluorophenyl)-N-(4-trifluoromethoxyphenyl)-1H-pyrazole-1-carboxamide]
LC50 (beet armyworm [1]): 1.4 µg/mL (≈ 2.92 µM)
mortality at 50 ppm [2]: 100%
LC50 (tobacco budworm [3]): 7.5 µg/mL (≈ 15.6 µM)
mortality at 12.5 ppm [4]: ~100%
mortality at 50 ppm [4]: ~100%
mortality at 200 ppm [4]: 100%
LC50 (tobacco budworm [5]): 1.3 µg/mL (≈ 2.71 µM)
LC50 (beet armyworm [6]): 2.2 µg/mL (≈ 4.59 µM)
